Experimental data: PubChem BioAssay AID2060900 (Molecular Pharmacology Branch, DTP, NCI, 2025)

Tested on: 521955-158-R2-J5-PDC complex spheroids, viability
Experiment: Anticancer human tumor 521955-158-R2-J5-PDC patient-derived pancreatic carcinoma cell line growth inhibition [RAS]
Conditions: for viability, T/C: stronger effect = lower value
Text: RAS pathway inhibitors in Combinations in Complex Spheroids
A high-throughput screen of multi-cell type tumor spheroids was designed to identify active combinations of RAS pathway inhibitors and targeted small molecules. Complex spheroids include a stromal component modeled by human endothelial cells (HUVEC) and fibroblasts modeled by human mesenchymal stem cells (MSCs). The concentration ranges selected for each drug and investigational agent were based upon clinically achievable concentrations if the clinical Cmax of the agent was known.
Compounds. The drugs and investigational agents: abemaciclib (NSC768073), cobimetinib (NSC768068), divarasib (GDC6063, NSC841802), docetaxel (NSC628503), GDC-1971 (RLY-1971, NSC841576), gemcitabine (NSC613327), inavolisib (NSC800729), ipatasertib (NSC767898), KB-0742 (NSC834161), MRTX-1133 (NSC836407), osimertinib (NSC779217), RMC-4630 (NSC839698), RMC-6236 (NSC851965), RMC-6291 (NSC852671), Ro-3306 (NSC812927), sapanisertib (NSC764658), SN-38 (NSC673596), staurosporine (NSC755774), SY5609 (NSC837396), and tovorafenib (DAY101, NSC766906), were obtained from the National Cancer Institute (NCI) Developmental Therapeutics Program Chemical Repository. The FDA-approved anticancer drug set is available from the NCI Developmental Therapeutics Program. […] The stock solutions were prepared in dimethyl sulfoxide (DMSO, Sigma-Aldrich, St. Louis, MO, cat. D2650) at 800-fold the tested concentration and stored at -70 degrees C prior to their use. All drugs and investigational agents were tested over a range starting from a high concentration at or near the clinical Cmax and decreasing in half-log increments. If the clinical Cmax for an agent had not been determined, the highest concentration tested was 10 microM.
Cell Culture. All cells were maintained in an incubator at 37 degrees C and 5% CO2 with 95% humidity. The PDC lines were cultured according to standard operating procedures established by the NCI PDMR. All PDCs were thawed and cultured in Matrigel-coated flasks prepared with a working solution of 1X Ham's F-12 nutrient mix, without supplementation (Invitrogen, Waltham, MA, cat. 11765054), 100 U/mL penicillin-streptomycin (Invitrogen, cat. 15140122), and 2.5% Matrigel (Corning Inc., Corning, NY, cat. 354248) for the first three passages. The 362531-283-R-J2-PDC and 782815-120-R-J1-PDC lines were cultured in 6C/Colon 1B media, which includes advanced DMEM/F-12 (Thermo Fisher Scientific, cat. 12634028), 10 mM HEPES (Thermo Fisher Scientific, cat. 15630080), 1X GlutaMAX supplement (Thermo Fisher Scientific, cat. 35050061), 0.1 mg/mL primocin (InvivoGen, San Diego, CA, cat. ant-pm-2), 10% defined fetal bovine serum, heat inactivated (HyClone Laboratories Inc., Logan, UT, cat. SH30070.03HI), 50% L-WRN conditioned media (ATCC, cat. CRL-3276), 1.25 mM N-Acetyl-L-cysteine (Sigma-Aldrich, cat. A9165), 10 mM nicotinamide (Sigma-Aldrich, cat. N0636), 1X B-27 supplement (Thermo Fisher Scientific, cat. 17504044), 1X N-2 supplement (Thermo Fisher Scientific, cat. 17502048), 50 ng/mL human EGF (Thermo Fisher Scientific, cat. PHG0311), and 10 microM Y-27632 dihydrochloride (Tocris Bioscience, cat. 1254). The K12877-001-R-J1-PDC line was cultured in 6I media, which includes all 6C/Colon 1B media plus 10 ng/mL human FGF-10 (PeproTech, cat. 100-26), 1 ng/mL human FGF-2 (PeproTech, cat. 100-18B), 1 µM prostaglandin E2 (Tocris Bioscience, cat. 2296), […] hydrocortisone (Sigma-Aldrich, cat. H4001), and […] bovine insulin (Sigma-Aldrich, cat. I6634). The K86415-001-R-J1-PDC line was cultured in 6D media, which includes all 6C/Colon 1B media components minus the L-WRN conditioned media. The 485176-168-R4-J1-PDC was cultured in PANC media, which includes all 6C/Colon 1B media plus 100 ng/mL human FGF-10 (PeproTech, cat. 100-26), 500 nM SB-431542 (Selleckchem, cat. S1067), and 10 nM gastrin (Tocris Bioscience, cat. 3006). […]
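Note: compound exposure lasted seven days before the viability read.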
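Throughout, for viability, T/C: spheroids also contain HUVEC endothelial cells and mesenchymal stem cells as stroma.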

Work on `CCc1c2c(nc3ccc(O)cc13)-c1cc3c(c(=O)n1C2)COC(=O)[C@]3(O)CC` + C#Cc1c(F)ccc2cc(O)cc(-c3ncc4c(N5CC6CCC(C5)N6)nc(OCC56CCCN5CC(F)C6)nc4c3F)c12 yielded an IC50 (curve of first compound, second compound 0.0316 µM) of 2.36 nM, an IC50 (curve of first compound, second compound 0.1 µM) of under 0.949 nM and an IC50 (curve of first compound, second compound 0.316 µM) of 1.13 nM. For the same molecule, the IC50 (curve of first compound, second compound 1 µM) was under 0.949 nM, the IC50 (curve of first compound, second compound 3.16 µM) was under 0.949 nM and the IC50 (curve of first compound, second compound 10 µM) was under 0.949 nM. The viability, T/C (second compound 0.0316 µM, first compound 0.000949 µM) was 68.1%, the viability, T/C (second compound 0.0316 µM, first compound 0.003 µM) was 40.9% and the viability, T/C (second compound 0.0316 µM, first compound 0.00949 µM) was 35.7%. It also gave a viability, T/C (second compound 0.0316 µM, first compound 0.03 µM) of 20.7%, a viability, T/C (second compound 0.0316 µM, first compound 0.0949 µM) of 15.3% and a viability, T/C (second compound 0.0316 µM, first compound 0.3 µM) of 9.62%. It also gave a viability, T/C (second compound 0.1 µM, first compound 0.000949 µM) of 43.4%, a viability, T/C (second compound 0.1 µM, first compound 0.003 µM) of 34.2% and a viability, T/C (second compound 0.1 µM, first compound 0.00949 µM) of 26.9%. For the same molecule, the viability, T/C (second compound 0.1 µM, first compound 0.03 µM) was 22.5%, the viability, T/C (second compound 0.1 µM, first compound 0.0949 µM) was 11.4% and the viability, T/C (second compound 0.1 µM, first compound 0.3 µM) was 12.5%. It also gave a viability, T/C (second compound 0.316 µM, first compound 0.000949 µM) of 51.9%, a viability, T/C (second compound 0.316 µM, first compound 0.003 µM) of 39.5% and a viability, T/C (second compound 0.316 µM, first compound 0.00949 µM) of 23.8%. It also gave a viability, T/C (second compound 0.316 µM, first compound 0.03 µM) of 18.3%, a viability, T/C (second compound 0.316 µM, first compound 0.0949 µM) of 14.3% and a viability, T/C (second compound 0.316 µM, first compound 0.3 µM) of 8.89%. The viability, T/C (second compound 1 µM, first compound 0.000949 µM) was 41.1%, the viability, T/C (second compound 1 µM, first compound 0.003 µM) was 36.1% and the viability, T/C (second compound 1 µM, first compound 0.00949 µM) was 18.4%. The viability, T/C (second compound 1 µM, first compound 0.03 µM) was 16.6%, the viability, T/C (second compound 1 µM, first compound 0.0949 µM) was 11.3% and the viability, T/C (second compound 1 µM, first compound 0.3 µM) was 10.6%. For the same molecule, the viability, T/C (second compound 3.16 µM, first compound 0.000949 µM) was 41.4%, the viability, T/C (second compound 3.16 µM, first compound 0.003 µM) was 34.6% and the viability, T/C (second compound 3.16 µM, first compound 0.00949 µM) was 24.7%. It also gave a viability, T/C (second compound 3.16 µM, first compound 0.03 µM) of 15.8%, a viability, T/C (second compound 3.16 µM, first compound 0.0949 µM) of 12.8% and a viability, T/C (second compound 3.16 µM, first compound 0.3 µM) of 5.72%. It also gave a viability, T/C (second compound 10 µM, first compound 0.000949 µM) of 30%, a viability, T/C (second compound 10 µM, first compound 0.003 µM) of 23% and a viability, T/C (second compound 10 µM, first compound 0.00949 µM) of 16.8%. The viability, T/C (second compound 10 µM, first compound 0.03 µM) was 15.5%, the viability, T/C (second compound 10 µM, first compound 0.0949 µM) was 11.2% and the viability, T/C (second compound 10 µM, first compound 0.3 µM) was 11.8%.

`CCC(CC)c1cc(NC2CCC(N)C2)n2nccc2n1` (centres undefined) was tested, and the viability, T/C (compound 0.0316 µM) was 110% [middle of 4 runs], the viability, T/C (compound 0.1 µM) was 91.2% [middle of 4 runs] and the viability, T/C (compound 0.316 µM) was 122% [middle of 4 runs]. The viability, T/C (compound 1 µM) was 111% [middle of 4 runs], the viability, T/C (compound 3.16 µM) was 9.87% [middle of 4 runs] and the viability, T/C (compound 10 µM) was 10.2% [middle of 4 runs]. The IC50 (curve of compound) was 1.97 µM [middle of 4 runs].
